Assay results from patent US9725414B2, “Fungicidal N-bicycloalkyl and N-tricycloalkyl pyrazole-4-(thio)carboxamide derivatives” (priority 2011, dated 2017).

How the values were obtained:
[1] = test system: Sphaerotheca fuliginea; experiment: Example B: in vivo preventive test on Sphaerotheca fuliginea (powdery mildew on cucurbits), gherkin plants; conditions: 500 ppm of active ingredient, grading 12 days after contamination
Outline: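 Gherkin plants grown at 24 °C were sprayed with compound at the Z11 cotyledon stage; controls received acetone/tween/DMSO/water without active. 24 h later, cotyledons were inoculated by spraying with Sphaerotheca fuliginea spores (100 000 spores per mL).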

[2] = test system: Septoria tritici; experiment: Example I: in vivo preventive test on Septoria tritici (wheat), acetone/tween/DMSO preparation; conditions: 500 ppm of active ingredient, grading 24 days after contamination
Outline: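 Scipion wheat grown at 22° C, sprayed at 1-leaf stage (10 cm); controls received acetone/tween/DMSO/water without active. Inoculated 24 h later with S. tritici spores (500 000/mL), held 72 h at 18° C, 100% RH, then 21 days at 90% RH. % efficacy vs controls scored 24 days post-inoculation.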

[3] = test system: Puccinia recondita; experiment: Example M: in vivo preventive test on Puccinia recondita (brown rust on wheat); conditions: 500 ppm of active ingredient, grading 12 days after contamination
Outline: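 Wheat (Scipion) sprayed with compound at 1-leaf stage, grown at 22° C. Inoculated 24 h later with a spore suspension at 100 000 spores per mL. Efficacy (%) graded 12 days after inoculation against solvent-treated controls.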

[4] = test system: Botrytis cinerea; experiment: Example P: in vivo preventive test on Botrytis cinerea (grey mould), gherkin plants; conditions: 500 ppm of active ingredient, grading 4 to 5 days after contamination
Outline: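 Gherkin plants at Z11 cotyledon stage sprayed preventively with active ingredient, then inoculated 24 h later with B. cinerea spores (50 000/mL) in PDB/fructose nutrient solution. Incubation at 17 °C and 90% RH; % efficacy graded 4–5 days post-inoculation against solvent-treated controls.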

[5] = test system: Uromyces appendiculatus; experiment: Example Q: in vivo preventive test on Uromyces appendiculatus (bean rust); conditions: Uromyces appendiculatus on bean plants, 500 ppm of active ingredient, grading 11 days after contamination
Outline: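 Saxa bean plants at 2-leaf stage, grown at 24° C., sprayed preventively with compound; 24 h later inoculated with U. appendiculatus spores (150 000 spores per mL). Percent efficacy graded 11 days after inoculation versus solvent-treated controls.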

[6] = test system: Alternaria brassicae; experiment: Example D: in vivo preventive test on Alternaria brassicae (leaf spot on radish); conditions: 500 ppm of active ingredient, grading 6 days after contamination
Outline: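 Radish plants at cotyledon stage were sprayed with compound; controls got the acetone/tween/DMSO/water mix alone. After 24 h they were inoculated with Alternaria brassicae spores (50 000 spores per mL) and kept at 20 °C, 100% relative humidity. % efficacy versus controls was graded 6 days post-inoculation.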

[7] = test system: Sphaerotheca fuliginea; experiment: Example A: in vivo preventive test on Sphaerotheca fuliginea (cucumber); conditions: 500 ppm of active ingredient, evaluated 7 days after inoculation
Experimental: In Vivo Preventive Test on Sphaerotheca fuliginea (Cucumber) Solvent: 49 parts by weight of N,N-dimethylformamide Emulsifier: 1 part by weight of alkylarylpolyglycolether To produce a suitable preparation of active compound, 1 part by weight of active compound is mixed with the stated amounts of solvent and emulsifier, and the concentrate is diluted with water to the desired concentration. To test for preventive activity, young plants are sprayed with the preparation of active compound at the stated rate of application. One day after this treatment, the plants are inoculated with an aqueous spore suspension of Sphaerotheca fuliginea. Then the plants are placed in a greenhouse at approximately 23° C. and a relative atmospheric humidity of approximately 70%.

[8] = test system: Pyrenophora teres; experiment: Example E: in vivo preventive test on Pyrenophora teres (barley), DMF/emulsifier preparation; conditions: 500 ppm of active ingredient, evaluated 7-9 days after inoculation
Outline: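 Young barley plants sprayed preventively with compound formulated in DMF/alkylaryl polyglycol ether emulsifier and diluted in water. One day later inoculated with aqueous Pyrenophora teres spore suspension, then held 48 h at 22 °C and 100% relative humidity.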

Row | SMILES | Efficacy [1] | Efficacy [2] | Efficacy [3] | Efficacy [4] | Efficacy [5] | Efficacy [6] | Efficacy [7] | Efficacy [8]
1 | Cn1nc(C(F)F)c(C(=O)N(C2CC2)C2CC3CCCCC3C2)c1F (centres unmarked) [Example 12] | 98% | 100% | 94% | 100% | 97% | – | – | –
2 | Cn1cc(C(=O)N(C2CC2)C2CCCC3CCCC32)c(C(F)F)n1 (centres unmarked) [Example 20] | 100% | 96% | 81% | 100% | 100% | – | – | –
3 | Cn1nc(C(F)F)c(C(=O)N(CC2(Cc3ccccc3)CC3CCC2C3)C2CC2)c1F (centres unmarked) [Example 69] | 100% | 97% | 81% | – | 96% | 96% | – | –
4 | CC(C1CC2CCC1C2)N(C(=O)c1c(C(F)F)nn(C)c1F)C1CC1 (centres unmarked) [Example 93] | – | – | – | – | – | – | 100% | 100%
5 | Cn1nc(C(F)F)c(C(=O)N(CC2CC3CCC2C3)C2CC2)c1F (centres unmarked) [Example 71] | – | – | – | – | – | – | 100% | 100%
6 | Cn1nc(C(F)F)c(C(=O)N(CC2CCC3CCCC3C2)C2CC2)c1F (centres unmarked) [Example 62] | 100% | 100% | 98% | – | 100% | – | – | –
7 | Cn1nc(C(F)F)c(C(=O)N(C2CC2)C2CCCC3CCCC32)c1F (centres unmarked) [Example 19] | 100% | 96% | 100% | 100% | 100% | 100% | – | –
